Tests used:
AO adenosine receptor = assay: adenosine binding to refolded receptor by flow dialysis; set-up: species or system shark Squalus acanthias; conditions: refolded receptor in Alkyl(C16)phosphorylcholine/lipid micelles, after 48 hours at 4° C.
Source text: The cDNA of one of the following receptors is, in-frame, inserted into the vector pGEX2a-c-His: AO adenosine receptor from the shark Squalus acanthias, human beta-2-adrenergic receptor, human neuropeptide YY1 receptor, human neuropeptide YY2 receptor, human melanocortine-1 receptor, human oxytocin receptor. This vector contains downstream of the Tac-promotor the sequence encoding glutathione-S-transferase and a subsequent thrombin cleavage site, followed by a polylinker sequence and, finally, six histidine codons and a stop codon.
2 ml of 3% sarcosyl are resuspended in PBS and stored on ice. 2 ml of inclusion bodies obtained in example 2 are added and mixed and treated for one minute with sonication. Immediately afterwards, 16 ml of 0.1% detergent stock solution in PBS are added.
Thereafter, a dialysis against 2 l of PBS is performed for four hours, as well as adding of 1 mM of GSH/0.1 mM GSSG from a 100× stock solution in water.
The solution is then stored for 48 hours at 4° C., whereupon, by flow dialysis, the adenosine binding was detectable, i.e. the receptor was present in native form.

[1] = cmc-value (critical micellar concentration) of detergents, own measurements of the inventors; format: physicochemical; conditions: reflects solubility of detergent in water
Source text: The inventors of the submitted application have, namely, recognized that the low yield and the lacking reproducibility in the known methods is to be assigned to the second detergent. […] Further, it has to be taken care that the second detergent, in its final concentration, is above the critical micellar concentration. […] Above the cmc-value, the concentration of solved detergent-monomers is constant.
According to own measurements of the inventors, the cmc-values for alkyl-phosphorylcholine with an alkyl rest of C12, C13, C14 or C16 are 500, 150, 50 or 5 μM.

adenosine binding (AO adenosine receptor) | cmc-value [1] [µM] | SMILES
detectable |  | Nc1ncnc2c1ncn2[C@@H]1O[C@H](CO)[C@@H](O)[C@H]1O [adenosine]
 | 500 | CCCCCCCCCCCCOP(=O)([O-])OCC[N+](C)(C)C [alkyl-phosphorylcholine C12]
 | 150 | CCCCCCCCCCCCCOP(=O)([O-])OCC[N+](C)(C)C [alkyl-phosphorylcholine C13]
 | 50 | CCCCCCCCCCCCCCOP(=O)([O-])OCC[N+](C)(C)C [alkyl-phosphorylcholine C14]
 | 5 | CCCCCCCCCCCCCCCCOP(=O)([O-])OCC[N+](C)(C)C [alkyl-phosphorylcholine C16]
